Test results published in paper PMC9057582, “HIF inhibitor 32-134D eradicates murine hepatocellular carcinoma in combination with anti-PD1 therapy” (The Journal of Clinical Investigation, 2022).
Like-named read-outs stand apart in the source and are kept apart here. Where a SMILES comes first, the peptide text is derived from it. The star is where a group is joined. Cbz = O=C(OCc1ccccc1)*

What was measured:
[1] = system: HIF transcriptional activity; experiment: HIF-dependent luciferase reporter assay (FLuc/RLuc ratio) in Hep3B-c1 cells; format: cell-based; conditions: Homo sapiens, 1% O2, 24 hours, read-out: IC50, inhibition of HIF-dependent reporter gene expression
Description: The NCI CellMiner database contains expression data for over 25,000 mRNAs in 60 human cancer cell lines that have been exposed to more than 20,000 chemical compounds ([49]). We searched CellMiner for a compound that induced changes in gene expression that were highly correlated with those induced by acriflavine, but which was structurally unrelated to acriflavine. Compounds that satisfied the above criteria were identified and subsequently analyzed in Hep3B-c1 cells ([50]), which are stably transfected with HIF-dependent reporter plasmid p2.1, in which firefly luciferase (FLuc) coding sequences are located downstream from a hypoxia-response element (HRE) and a basal SV40 promoter; and control reporter pSVR, in which Renilla luciferase (RLuc) coding sequences are downstream of the basal SV40 promoter only (Figure 1A). The FLuc/RLuc ratio in cells exposed to 1% O2 for 24 hours is a specific measure of HIF-dependent gene expression.
Figure 1 Identification of HIF inhibitors. (A) Hep3B-c1 cells were stably transfected with firefly luciferase (FLuc) reporter p2.1, which contains a hypoxia-response element (HRE), and Renilla luciferase (RLuc) reporter pSVR. (B) Hep3B-c1 cells were incubated with vehicle (Veh; 0.1% DMSO; blue bars) or 10 μM 32-134D (red bars) at 20% O2 (n = 6) or 1% O2 (n = 12) for 24 hours. Cell lysates were assayed for Fluc/Rluc activity (mean ± SEM); *P < 0.05 versus vehicle (χ^2 test). (C) Chemical structures and IC50 values for HIF inhibitors. (D and E) Hep3B cells were exposed to 20% O2 with vehicle, or 1% O2 with vehicle (blue bar), 32-134D (red bars), 33-063 (green bars), or PT2385 (brown bars) for 24 hours and CA9 (D) and EPO (E) mRNAs were quantified by RT-qPCR. […] (F) Hep3B cells were exposed to 20% or 1% O2 in the presence of vehicle or 1% O2 in the presence of 5 μM 32-134D (n = 3 each) for 24 hours. […]
Hep3B-c1 cells ([50]) were seeded on 24-well plates. […] FLuc/RLuc ratios were determined using the Dual Luciferase Reporter Assay System (Supplemental Table 6) and the VICTOR Nivo plate reader (PerkinElmer).

[2] = system: HIF-1α and HIF-2α protein; experiment: Immunoblot of nuclear extracts of Hep3B cells; format: cell-based, human; conditions: 5 μM MG132 during last 8 hours, 5 μM 32-134D
Description: Figure 1 Identification of HIF inhibitors. (A) Hep3B-c1 cells were stably transfected with firefly luciferase (FLuc) reporter p2.1, which contains a hypoxia-response element (HRE), and Renilla luciferase (RLuc) reporter pSVR. (B) Hep3B-c1 cells were incubated with vehicle (Veh; 0.1% DMSO; blue bars) or 10 μM 32-134D (red bars) at 20% O2 (n = 6) or 1% O2 (n = 12) for 24 hours. Cell lysates were assayed for Fluc/Rluc activity (mean ± SEM); *P < 0.05 versus vehicle (χ^2 test). (C) Chemical structures and IC50 values for HIF inhibitors. (D and E) Hep3B cells were exposed to 20% O2 with vehicle, or 1% O2 with vehicle (blue bar), 32-134D (red bars), 33-063 (green bars), or PT2385 (brown bars) for 24 hours and CA9 (D) and EPO (E) mRNAs were quantified by RT-qPCR. […] (F) Hep3B cells were exposed to 20% or 1% O2 in the presence of vehicle or 1% O2 in the presence of 5 μM 32-134D (n = 3 each) for 24 hours. RNA sequencing identified genes with hypoxia-induced expression (blue circle) and genes that were inhibited by 32-134D (orange circle), based on FDR < 0.05 and fold change > 1.5. (G) Hep3B cells were exposed to 20% or 1% O2 for 24 hours in the presence of vehicle or 5 μM 32-134D, nuclear extracts were prepared, and immunoblot assays were performed. […]

[3] = system: HIF target genes in Hep3B cells; experiment: RT-qPCR of endogenous HIF target gene expression in Hep3B cells; format: cell-based, human; conditions: Hep3B cells, 1% O2, 24 hours
Description: Based on this hit, we synthesized analogs in which either halogen substitutions to the indole groups were altered or the central thiazole was replaced by imidazole, isoxazole, oxadiazole, oxazole, pyrazinone, pyridazine, pyrazine, pyrazole, pyridine, thiadiazole, triazine, or triazole. […] We focused on analyzing the effect of the bis-bromoindole thiazole 32-134D and the bis-indole thiadiazole 33-063 on endogenous HIF target gene expression in Hep3B cells. […] For comparison, we tested the effect of PT2385, which inhibited EPO, NDRG1, ANGPTL4, and VEGFA expression but had no effect on CA9, which is consistent with its HIF-2–selective mechanism of action ([44]). None of the compounds had any effect on RPL13A expression, which is neither induced by hypoxia nor regulated by HIFs (Supplemental Figure 2D).
Human Hep3B and mouse Hepa1-6 cells were purchased from ATCC and grown in high-glucose (4.5 mg/mL) Dulbecco’s modified Eagle’s medium supplemented with 10% (vol/vol) fetal bovine serum and 1% penicillin/streptomycin at 37°C in a 5% CO2/95% air incubator (Supplemental Table 6). Human cell line identity was authenticated by analysis of short tandem repeats, and all cell lines were maintained mycoplasma free, using PCR-based assays conducted at the Johns Hopkins University Genetic Resources Core Facility (JHU GRCF). Cells were subjected to hypoxia in a controlled atmosphere chamber (PLAS Labs) with ambient gas mixture containing 1% O2 and 5% CO2.
(§1) RNA was extracted using TRIzol Reagent. Quantitative real-time PCR was conducted using SYBR Green PCR Master Mix and reactions were run using a Bio-Rad thermal cycler. Primer sequences and reagent sources are listed in Supplemental Table 5. The mRNA expression of target genes was normalized to the expression of 18S rRNA and the fold change (FC) was calculated based on the threshold cycle (Ct) as FC = 2^–Δ(ΔCt), where ΔCt = Cttarget gene – Ct18S rRNA and Δ(ΔCt) = ΔCttreatment – ΔCtcontrol. For RNA-seq, total RNA was isolated and treated with DNase (Qiagen). The JHU GRCF High-Throughput Sequencing facility prepared libraries and performed RNA-seq. The RNA-seq data were processed and interpreted using Genialis Expressions software (https://www.genialis.com/expressions/). An automated data analysis pipeline run in the Genialis platform consisted of the following: Sequence quality checks were performed on raw and trimmed reads with FastQC. Bbduk was used to trim adapters and filter out poor quality reads. Trimmed reads were then mapped to the STAR index (ENSEMBL 100) reference genome using the STAR ([93]) aligner. Gene expression levels were quantified with featureCounts ([94]), and differential gene expression analyses were performed with DESeq2 ([95]). […] Differential expression was determined with an FDR of less than 0.05 and mRNA FC of greater than 1.5 to identify hypoxia-induced genes and genes inhibited by 32-134D. Data used in this study have been deposited in the NCBI Gene Expression Omnibus database (GEO GSE195997).
Supplemental Figure 2. Effect of 32-134D on gene expression in Hep3B cells. (A-D) Hep3B cells were exposed to 20% O2 in the presence of vehicle (first bar; no fill) or 1% O2 in the presence of: vehicle (blue bar) or the indicated concentration of 32-134D (bars with red fill) or 33-063 (bars with green fill), or PT2385 (bars with brown fill) for 24 hours and the indicated mRNAs were quantified by reverse transcription and quantitative real-time PCR (qPCR). Data are presented as mean + SEM (n = 3). *p < 0.05 vs white; **p < 0.01 vs blue (ANOVA with Bonferroni post-test). […]
(G-H) Analysis of HIF-1a (G) and HIF-2a (H) […]
mRNA expression in Hep3B cells exposed to vehicle or 32-134D at 20% or 1% O2 for 24

[4] = system: HIF-1, HIF-2 and p300 recruitment to HREs; experiment: ChIP-qPCR of HRE occupancy in Hep3B cells; format: cell-based, human; conditions: 16 hours, 5 µM 32-134D or 10 µM PT2385
Description: Coadministration of the proteasome inhibitor MG-132 blocked the effect of 32-134D on HIF-1α protein levels (Figure 1H). […] Taken together, the results presented in Figure 1 and Supplemental Figures 1–3 indicate that 32-134D induces HIF-α subunit degradation, thereby inhibiting activation of HIF-1 and HIF-2 target gene transcription.
Cells were seeded overnight and then exposed to 20% or 1% O2 in the presence of compound or vehicle for 16 hours. Protein was cross-linked to DNA by addition of 37% formaldehyde to culture medium for 10 minutes at 37°C and quenched by addition of 0.1 M glycine. Cells were washed with and collected in 5 mL of cold PBS containing PIs. Cells were pelleted and resuspended in 200 μL of SDS lysis buffer (50 mM Tris-HCl [pH 8.1], 10 mM EDTA, 1% SDS) containing PIs and incubated on ice for 10 minutes. Lysates were sonicated to produce DNA fragments ranging from 200 to 900 bp and centrifuged for 10 minutes at 4°C. Supernatants were collected and diluted 10-fold with dilution buffer (16.7 mM Tris-HCl [pH 8.1], 167 mM NaCl, 1.2 mM EDTA, 0.01% SDS, 1.1% Triton X-100) with PIs, precleared with 20 μL of salmon sperm DNA/protein A agarose slurry, and a 20-μL aliquot was reserved as input control. Antibody (2 μg; see Supplemental Table 6) was added and samples were rotated overnight at 4°C. Immune complexes were precipitated with 50 μL of salmon sperm DNA/protein A agarose slurry. Pelleted beads were washed serially using low-salt wash buffer (20 mM Tris-HCl [pH 8.1], 150 mM NaCl, 2 mM EDTA, 0.1% SDS, 1% Triton X-100); high-salt wash buffer (20 mM Tris-HCl [pH 8.1], 500 mM NaCl, 2 mM EDTA, 0.1% SDS, 1% Triton X-100); LiCl wash buffer (10 mM Tris-HCl [pH 8.1], 0.25 M LiCl, 1% Nonidet P-40, 1% deoxycholate, 1 mM EDTA); and TE buffer (10 mM Tris-HCl [pH 8.1], 1 mM EDTA). Elution buffer (1% SDS, 0.1 M NaHCO3) was added and eluates were heated at 65°C overnight to reverse cross-linking. Eluates were treated with proteinase K for 1 hour at 45°C and DNA was purified by extraction in phenol/chloroform/isoamyl alcohol (25:24:1, v/v/v) and isopropanol precipitation. […]

[5] = cited from earlier work
Hepa1-6 mouse HCC cells = experiment: RT-qPCR of hypoxia-induced gene expression in Hepa1-6 cells; format: cell-based; conditions: Hepa1-6, 1% O2, 24 hours
Description: Next, we analyzed Hepa1-6, which is a mouse HCC cell line. […] CXCL1, IL-6, and IL-10 were not induced by hypoxia, whereas hypoxia-induced IL-22 expression was inhibited by 32-134D (P < 0.05; Figure 3C).
Figure 3 Effect of 32-134D treatment on hypoxia-induced gene expression in Hepa1-6 cells. (A–C) Cells were exposed to 20% O2 and vehicle (white bars), 1% O2 and vehicle (blue bars), or 1% O2 and 32-134D (red bars) for 24 hours and mRNAs were quantified by RT-qPCR and normalized to white (mean ± SEM, n = 4). *P < 0.05 versus white; ^#P < 0.05 versus blue (ANOVA with Bonferroni’s post hoc test).
as §1
Supplemental Figure 7. Effect of 32-134D on gene expression in Hepa1-6 cells. Cells were exposed to 20% O2 and vehicle (white bar) or 1% O2 and vehicle (blue bar), 2.5-10 […]
for 24 hours and mRNAs were quantified by RT-qPCR and normalized to white (mean + SEM, n = 4). *p < 0.05 vs white; #p < 0.05 vs blue (ANOVA with Bonferroni post-test).
(1 picture or pasted object on this page, not shown here)

[6] = von Hippel-Lindau syndrome patients

## Brc1ccc2c(-c3nc(-c4c[nH]c5ccc(Br)cc45)cs3)c[nH]c2c1 [Compound 11-88, reference compound]
[1]
  IC50: 2900 nM

## CC(C)C[C@@H](C=O)NC(=O)[C@H](CC(C)C)NC(=O)[C@H](CC(C)C)NC(=O)OCc1ccccc1 [MG-132, reference compound] (Cbz-Leu-Leu-Leu-aldehyde)
[2]
  effect of 32-134D on HIF-1α protein levels on coadministration: blocked

## CS(=O)(=O)c1ccc(Oc2cc(F)cc(C#N)c2)c2c1[C@H](O)C(F)(F)C2 [PT2385, reference compound]
[3]
  hypoxia-induced ANGPTL4, VEGFA, NDRG1 and EPO mRNA expression: inhibited
  hypoxia-induced CA9 mRNA expression (activated by HIF-1 only): no effect
[4]
  hypoxia-induced recruitment of HIFs and p300 to EPO and ANGPTL4 HREs: inhibited
[5]; phase I trial
  patients with grade 3 anemia: 10%
Hepa1-6 mouse HCC cells; 5-10 µM
  ANGPTL4, PGF, and VEGFA mRNA expression, potency compared with 32-134D and 33-063: less potent inhibitor

## c1ccc2c(-c3nsc(-c4c[nH]c5ccccc45)n3)c[nH]c2c1 [Compound 33-063]
[3]
  hypoxia-induced ANGPTL4, VEGFA, NDRG1 and EPO mRNA expression: significantly inhibited
  hypoxia-induced CA9 mRNA expression (activated by HIF-1 only): significantly inhibited
[1]
  IC50: 2200 nM
Hepa1-6 mouse HCC cells
  RPL13A mRNA expression: no effect
Hepa1-6 mouse HCC cells; 2.5-10 µM
  hypoxia-induced ANGPTL4, EPO, PGF, and VEGFA mRNA expression: significant dose-dependent inhibition

## CS(=O)(=O)c1ccc(Oc2cc(F)cc(C#N)c2)c2c1[C@H](O)[C@H](F)[C@@H]2F [belzutifan/PT2977]
[5]; [6]
  patients with decreased blood hemoglobin levels: 90%
  patients with grade 3 anemia: 7%
